We go through 26 compounds from EP0864571A1, “APOVINCAMINIC ACID DERIVATIVE AND MEDICINE CONTAINING THE SAME” (Hidaka, Hiroyoshi, priority 1995, dated 1997).

For data set [1], the system named is superior mesenteric artery. Kind of data set: Vascular smooth muscle relaxing activity (potassium chloride-contracted helical artery preparation). Also noted: species or system rabbit. As to conditions: read-out: Vascular smooth muscle relaxing activity (ED50). On the procedure:
Each rabbit was sacrificed under exsanguination, and an incision was then made in the flank thereof. […] After this preparation cut was caused to contract with potassium chloride to maintain it under predetermined tension, a given test compound was added cumulatively.

The test system of a further data set is washed platelets. In words: Platelet aggregation inhibiting activity (washed platelets, collagen, nephelometric analysis). The class given is cell-based, normal volunteer. As to conditions: Homo sapiens, read-out: Platelet aggregation inhibiting activity (IC50).
Data set [2] deals with platelet-rich plasma (PRP). Kind of data set: Platelet aggregation inhibition test (ex vivo PRP after oral administration). The class given is in vivo. As to conditions: guinea pigs, blood one hour after administration; for Platelet aggregation inhibition rate (%) Collagen: collagen (2.5 µg/mg); for Platelet aggregation inhibition rate (%) Arachidonic acid: arachidonic acid (0.1 mM). The protocol:
A test was conducted using male S1c:Hartley guinea pigs, which were 5 to 7 weeks old and had body weights of from 274 to 554 g, in groups each of which consisted of five guinea pigs. […] One hour after the administration, blood was collected from the abdominal aorta, and a platelet-rich plasma (PRP) was prepared. […]

Data set [3] in a line: Acute toxicity (single intravenous shot, approximate LD50). The settings on record: mouse, in vivo, male S1C:ICR mice, single shot into caudal vein. The protocol: A test was conducted using male S1C:ICR mice, which were 6 to 7 weeks old and had body weights of from 18 to 36 g, in groups each which consisted of 3 mice.
Predetermined amounts of compounds according to the present invention and a comparative drug (vinpocetine phosphate), each of which had been dissolved in a 5% aqueous solution of glucose, were administered as single shots into the caudal veins of the mice, and the mice were then observed to determine whether they remained under normal conditions or died. Upon expiration of an observation period, their approximate LD50 values were calculated by the provit method.

Data set [4] concerns Vertebral blood flow and femoral blood flow. Kind of data set: Blood flow enhancement test (anesthetized beagles, electromagnetic flow probe). The class given is in vivo. As to conditions: femoral vein administration. The protocol: A test was conducted using male beagles, which were 9 to 13 months old, had body weights of from 9 to 10 kg and had been anesthetized with pentobarbital sodium (25-30 mg/kg), in groups each of which consisted of four beagles. Into one of the femoral veins of each of the beagles, a given test compound in a form dissolved in a 5% agueous solution of glucose was administered at a dose of from 0.1 to 1.0 mg/kg. Vertebral blood flow and femoral blood flow were measured using an electromagnetic flow probe connected to a magnetic flow meter.

Setting [5] is: Oryctolagus cuniculus, rabbit superior mesenteric artery contracted with potassium chloride, concentration for 50% relaxation.
[6] abbreviates: washed platelets of a normal volunteer, aggregation by collagen.

Where two headings read alike, the source gives them in different places.

Experimental for washed platelets: Blood, which had been collected from a normal volunteer and had immediately been mixed with 1/10 volume of a 0.38% agueous solution of sodium citrate, was converted into a platelet-rich plasma (PRP) by centrifugation (700 x G, 10 minutes). To the PRP, 1/6 volume of the ACD solution (2.2% sodium citrate, 0.8% citric acid, 2.2% glucose - prepared before use) was added, followed by centrifugation (1,500 x G, 10 minutes). A platelet pellet so obtained was suspended in a modified HEPES Tyrode solution (135 mM sodium chloride, 2.7 mM potassium chloride, 1 mM magnesium chloride, 0.1 mg/mℓ glucose, 20 mM HEPE; pH 7.4). After 1/6 volume of the ACD solution was added to the suspension, further centrifugation was conducted (1,500 x G, 5 minutes). A platelet pellet so obtained was suspended in the modified HEPES Tyrode solution, whereby a washed platelet suspension containing about 300,000 platelets/µℓ therein was obtained.
Into 270-µℓ aliquots of the washed platelet suspension obtained above, 3-µℓ aliquots of solutions of a given test compound at varied concentrations in an appropriate solvent were added, respectively. The resulting mixtures were each preheated at 37°C for 2 minutes and, subsequent to the addition of 30 µℓ of a 20 µg/mℓ solution of collagen, an absorbance was measured by a 4-channel aggregometer ("HEMA Tracer 601"; manufactured by Nicoh Bioscience Co., Ltd.).
As a control, an absorption at the time of maximum aggregation by collagen in the presence of a solvent making use of a given test compound was assumed to be 100 whereas an absorbance before the addition of collagen was assumed to be 0. An inhibition rate (%) was then calculated from an absorbance at the time of maximum aggregation by collagen when the given test compound was added, and a concentration (µM) of the given test compound which achieves 50% inhibition was expressed as "IC50".

Consider `CCOC(=O)C1=CC2(CC)CCCN3CCc4c(n1c1cc(NS(=O)(=O)c5ccc(NC(C)=O)cc5)ccc41)C32` (stereo not shown) [Compound 14, Ethyl 11-(4-acetylaminophenyl)sulfonyl-amino-apovincaminate], for which the EC50 in data set [1] (setting [5]) is 1200 nM. Besides, the IC50 in the data set with washed platelets (setting [6]) stood at 470 nM.

Regarding `CCOC(=O)C1=CC2(CC)CCCN3CCc4c(n1c1cc(NS(=O)(=O)Cc5ccccc5)ccc41)C32` (stereo not shown) [Compound 13, Ethyl 11-benzylsulfonylamino-apovincaminate], the EC50 in data set [1] (setting [5]) is 300 nM. For the same compound, in the data set with washed platelets (setting [6]), the IC50 came out at 4400 nM.

On to `CCC12C=C(C(=O)OC(C)C)n3c4c(c5ccc(NS(=O)(=O)c6ccc(Cl)cc6)cc53)CCN(CCC1)C42` (stereo not shown) [Compound 5, Isopropyl 11-(4-chlorophenyl)sulfonylamino-apovincaminate], for which the EC50 in data set [1] (setting [5]) came out at 1300 nM. Besides, the IC50 with washed platelets (setting [6]) came out at 940 nM.

As for `CCOC(=O)C1=CC2(CC)CCCN3CCc4c(n1c1cc(NS(=O)(=O)c5cc(Cl)ccc5Cl)ccc41)C32` (stereo not shown) [Compound 9, Ethyl 11-(2,5-dichlorophenyl)sulfonylamino-apovincaminate], the EC50 in data set [1] (setting [5]) turned out to be 900 nM. The IC50 with washed platelets (setting [6]) came to 880 nM.

Consider `O=C1CCc2cc(OCCCCc3nnnn3C3CCCCC3)ccc2N1` [Cilostazol, reference compound], for which, in data set [2] (oral 100 mg/kg), the “Platelet aggregation inhibition rate (%) Collagen” value was 12.4%. Besides, in data set [2] (oral 300 mg/kg), the “Platelet aggregation inhibition rate (%) Arachidonic acid” value is given as 22.1% and the “Platelet aggregation inhibition rate (%) Collagen” value worked out at 74.7%.

Turning to `CCOC(=O)C1=CC2(CC)CCCN3CCc4c(n1c1cc(NS(=O)(=O)c5c(F)c(F)c(F)c(F)c5F)ccc41)C32` (stereo not shown) [Compound 23, Ethyl 11-(2,3,4,5,6-pentafluorophenyl)sulfonylamino-apovincaminate], the EC50 in data set [1] (setting [5]) stood at 1200 nM. The IC50 in the data set with washed platelets (setting [6]) is 580 nM.

For `CCOC(=O)C1=CC2(CC)CCCN3CCc4c(n1c1cc(NS(=O)(=O)c5cccc([N+](=O)[O-])c5)ccc41)C32` (stereo not shown) [Compound 24, Ethyl 11-(3-nitrophenyl)sulfonylamno-apovincaminate], the EC50 in data set [1] (Oryctolagus cuniculus) is 200 nM. Besides, the IC50 in the data set with washed platelets came out at 900 nM.

Consider `CCOC(=O)C1=CC2(CC)CCCN3CCc4c(n1c1cc(NS(=O)(=O)c5ccc(C)cc5)ccc41)C32` (stereo not shown) [Compound 11, Ethyl 11-(4-toluene)sulfonylamino-apovincaminate], for which the LD50 in data set [3] was 125 mg/kg. Further, the EC50 in data set [1] (Oryctolagus cuniculus) came out at 1000 nM. In addition, in data set [4] (dose 0.1 mg/kg), the “Bloodflow increment (%) Femoral artery” value turned out to be 2.9% and the “Bloodflow increment (%) Vertebral artery” value is reported as 5.4%. Besides, in data set [4] (dose 0.3 mg/kg), the “Bloodflow increment (%) Femoral artery” value worked out at 5.1% and the “Bloodflow increment (%) Vertebral artery” value came out at 11.8%. Besides, in data set [4] (dose 1.0 mg/kg), the “Bloodflow increment (%) Femoral artery” value worked out at 4.5% and the “Bloodflow increment (%) Vertebral artery” value is given as 32.5%. For the same compound, in the data set with washed platelets, the IC50 is 50 nM. In data set [2] (oral 100 mg/kg), the “Platelet aggregation inhibition rate (%) Arachidonic acid” value is reported as 33.9% and the “Platelet aggregation inhibition rate (%) Collagen” value amounted to 49.1%.

For the compound `CCOC(=O)C1=CC2(CC)CCCN3CCc4c(n1c1cc(NS(=O)(=O)c5cc(C)ccc5C)ccc41)C32` (stereo not shown) [Compound 17, Ethyl 11-(2,5-dimethylphenyl)sulfonyl-amino-apovincaminate], the EC50 in data set [1] (setting [5]) is 710 nM. Further, in the data set with washed platelets (setting [6]), the IC50 was 720 nM.

On to `CCCOC(=O)C1=CC2(CC)CCCN3CCc4c(n1c1cc(NS(=O)(=O)c5ccc(Cl)cc5)ccc41)C32` (stereo not shown) [Compound 6, Propyl 11-(4-chlorophenyl)sulfonylamino-apovincaminate], for which the EC50 in data set [1] (setting [5]) turned out to be 1300 nM. Further, the IC50 in the data set on washed platelets (setting [6]) stood at 960 nM.

With `CCOC(=O)C1=CC2(CC)CCCN3CCc4c(n1c1cc(NS(=O)(=O)c5ccc(OC)cc5)ccc41)C32` (stereo not shown) [Compound 16, Ethyl 11-(4-methoxyphenyl) sulfonylamino-apovincaminate], the EC50 in data set [1] (setting [5]) amounted to 700 nM. For the same compound, the IC50 in the data set on washed platelets (setting [6]) amounted to 1000 nM.

As to `CCC12C=C(C(=O)OC)n3c4c(c5ccc(NS(=O)(=O)c6ccccc6)cc53)CCN(CCC1)C42` (stereo not shown) [Compound 2, Methyl 11-phenylsulfonylamino-apovincaminate], the EC50 in data set [1] (setting [5]) turned out to be 2100 nM. In the data set with washed platelets (setting [6]), the IC50 was 380 nM.

As for `CCOC(=O)C1=CC2(CC)CCCN3CCc4c(n1c1cc(NS(=O)(=O)c5ccc(OC)cc5[N+](=O)[O-])ccc41)C32` (stereo not shown) [Compound 21, Ethyl 11-(4-methoxy-2-nitrophenyl)sulfonylamino-apovincaminate], in data set [1] (setting [5]), the EC50 was determined as 2100 nM. In the data set with washed platelets (setting [6]), the IC50 was determined as 400 nM.

In the case of `CCOC(=O)C1=CC2(CC)CCCN3CCc4c(n1c1cc(NS(=O)(=O)c5cccs5)ccc41)C32` (stereo not shown) [Compound 18, Ethyl 11-(2-thiophene)sulfonylamino-apovincaminate], the EC50 in data set [1] (setting [5]) amounted to 630 nM. Further, in the data set with washed platelets (setting [6]), the IC50 was found to be 400 nM.

Regarding `CCOC(=O)C1=CC2(CC)CCCN3CCc4c(n1c1cc(NS(=O)(=O)c5cccc6ccccc56)ccc41)C32` (stereo not shown) [Compound 10, Ethyl 11-(1-naphthalene)sulfonylamino-apovincaminate], in data set [1] (setting [5]), the EC50 turned out to be 2000 nM. Further, the IC50 in the data set on washed platelets (setting [6]) was determined as 9200 nM.

Turning to `CCOC(=O)C1=CC2(CC)CCCN3CCc4c(n1c1cc(NS(=O)(=O)c5cccc6cccnc56)ccc41)C32` (stereo not shown) [Compound 15, Ethyl 11-(8-quinoline)sulfonylamino-apovincaminate], the EC50 in data set [1] (setting [5]) worked out at 500 nM. In the data set on washed platelets (setting [6]), the concentration for half-maximal inhibition (IC50) was 4100 nM.

Regarding `CCOC(=O)C1=CC2(CC)CCCN3CCc4c(n1c1cc(NS(=O)(=O)c5ccc6ccccc6c5)ccc41)C32` (stereo not shown) [Compound 22, Ethyl 11-(2-naphthalene)sulfonylamino-apovincaminate], the EC50 in data set [1] (setting [5]) amounted to 860 nM. The IC50 in the data set on washed platelets (setting [6]) was found to be 280 nM.

As for `CCOC(=O)C1=C[C@]2(CC)CCCN3CCc4c(n1c1cc(NS(=O)(=O)c5c(C(C)C)cc(C(C)C)cc5C(C)C)ccc41)[C@@H]32` [Compound 20, Ethyl 11-(2,4,6-triisopropylphenyl)sulfonylamino-apovincaminate], in data set [1] (rabbit superior mesenteric artery contracted with potassium chloride, concentration for 50% relaxation), the EC50 was determined as 930 nM.

On to `CCOC(=O)C1=CC2(CC)CCCN3CCc4c(n1c1cc(NS(=O)(=O)c5ccccc5)ccc41)C32` (stereo not shown) [Compound 1, ethyl 11-phenylsulfonylamino-apovin-caminate], for which the LD50 in data set [3] is 85 mg/kg. In addition, in data set [2] (oral 100 mg/kg), the “Platelet aggregation inhibition rate (%) Arachidonic acid” value is on record as 45.2% and the “Platelet aggregation inhibition rate (%) Collagen” value turned out to be 85.4%.

Turning to `CCOC(=O)C1=CC2(CC)CCCN3CCc4c(n1c1cc(NS(=O)(=O)c5ccc(I)cc5)ccc41)C32` (stereo not shown) [Compound 8, Ethyl 11-(4-iodophenyl)sulfonylamino-apovincaminate], in data set [1] (setting [5]), the EC50 turned out to be 1300 nM. The IC50 in the data set on washed platelets (setting [6]) turned out to be 810 nM.

Take `CCOC(=O)C1=CC2(CC)CCCN3CCc4c(n1c1cc(NS(=O)(=O)c5ccc(Br)cc5)ccc41)C32` (stereo not shown) [Compound 4, Ethyl 11-(4-bromophenyl)sulfonylamino-apovincaminate]: the EC50 in data set [1] (setting [5]) amounted to 1000 nM. Moreover, the IC50 in the data set with washed platelets (setting [6]) came to 760 nM.

For the compound `CCOC(=O)C1=CC2(CC)CCCN3CCc4c(n1c1cc(NS(=O)(=O)c5ccccc5C(=O)OC)ccc41)C32` (stereo not shown) [Compound 19, Ethyl 11-(2-methoxycarbonylphenyl)sulfonylamino-apovincaminate], the EC50 in data set [1] (setting [5]) was 200 nM. Moreover, the IC50 in the data set on washed platelets (setting [6]) turned out to be 1800 nM.

In data set [3], `CCOC(=O)C1=CC2(CC)CCCN3CCc4c(n1c1ccccc41)C32` (stereo not shown) [Vinpocetine phosphate, vinpocetine phosphate, reference compound] registered an LD50 of 60 mg/kg.

Regarding `CCC12C=C(C(=O)OC)n3c4c(c5ccc(NS(=O)(=O)c6ccc(Cl)cc6)cc53)CCN(CCC1)C42` (stereo not shown) [Compound 3, Methyl 11-(4-chlorophenyl)sulfonylamino-apovincaminate], in data set [1] (setting [5]), the EC50 stood at 1700 nM. In the data set with washed platelets (setting [6]), the IC50 turned out to be 250 nM.

For `CCOC(=O)C1=CC2(CC)CCCN3CCc4c(n1c1cc(NS(=O)(=O)c5ccc(F)cc5)ccc41)C32` (stereo not shown) [Compound 7, Ethyl 11-(4-fluorophenyl)sulfonylamino-apovincaminate], the EC50 in data set [1] (setting [5]) turned out to be 2000 nM. For the same compound, the IC50 with washed platelets (setting [6]) came to 910 nM.

As for `CCOC(=O)C1=CC2(CC)CCCN3CCc4c(n1c1cc(NS(=O)(=O)c5c(C)cc(C)cc5C)ccc41)C32` (stereo not shown) [Compound 12, Ethyl 11-mesytylenesulfonylamino-apovincaminate], the LD50 in data set [3] turned out to be 50 mg/kg. Further, the “Platelet aggregation inhibition rate (%) Collagen” value in data set [2] (oral 100 mg/kg) turned out to be 13.0%.

As usually defined, the IC50 is the concentration needed to halve the response being measured. As usually defined, the LD50 is the dose at which mortality reaches 50%. High values mean a less toxic substance, low ones a more toxic substance.
